# Earlier results in US9532987B2, “Use of a combination of a MEK inhibitor and an ERK inhibitor for treatment of hyperproliferative diseases” (Genentech, Inc., priority 2013, dated 2017).
# Experiments:
# [1] = test system: tumor cells bearing activating B-RAF mutations
# [2] = test system: tumor cells bearing activating Ras mutations
SMILES,inhibition of tumor cell growth [1],inhibition of tumor cell growth [2]
"O=C(c1ccc(F)c(F)c1Nc1ccc(I)cc1F)N1CC(O)([C@@H]2CCCCN2)C1 [GDC-0973, [3,4-difluoro-2-[(2-fluoro-4-iodophenyl)amino]phenyl][3-hydroxy-3-[(2S)-2-piperidinyl]-1-azetidinyl]methanone]",more activity,effective
"O=C(NOCCO)c1ccc2cncn2c1Nc1ccc(I)cc1F [GDC-0623, 5-[(2-fluoro-4-iodophenyl)amino]-N-(2-hydroxyethoxy)-imidazo[1,5-a]pyridine-6-carboxamide]",effective,more activity
